Values after ≈ are worked out from the molar mass of the structure shown.
Key:
A. fumigatus 1163 = assay: MIC; format: cell-based
C. albicans SN250 = assay: MIC; format: cell-based, Candida albicans
[1] = system: C. albicans SN250, C. albicans, C. krusei, C. glabrata, C. tropicalis, A. fumigatus 91, 1163, 1100; assay: Average MIC over the tested strains; format: cell-based; parameters: Avg. MIC of AmB amide: unit not given here; conditions: for Avg. MIC of AmB amide: value of the corresponding C16 amide of AmB, not of the C2’epi compound
C. krusei = assay: MIC; format: cell-based
C. tropicalis = assay: MIC; format: cell-based
Plasma Stability = format: in vitro ADME
Description: Plasma Stability: Procedure: […] Plasma was warmed to 37° C. prior to the experiment and centrifuged for 5 mins at 4000 rpm. […] Each time point was monitored in triplicate (0, 10, 30, 60 and 120 min). 4 uL/well aliquot of the working solution was mixed to the blank plasma and incubated at 37° C. AT each time point samples were quenched with ACN stop solution containing 200 ng/ml Tolbutamide & 200 ng/ml Labetalol at 1:3 ratio and mix well on shaker for 10 min then centrifuge at 4000 rpm for 15 min. A 100 ul aliquot of supernatant was mixed with 100 μL of ultra-pure and submitted for LC-MS/MS analysis.

[2] = Liver Microsome stability (In Vitro Metabolism); format: in vitro ADME; conditions: for Remaining (T = NCF60 min): no cofactor 60 min
Description: Working Compound solution: 10 uM in 50 mM potassium phosphate buffer with 9% MeOH and 1% DMSO
Microsome solution: working concentration 0.625 mg/ml
Stopping solution: Cold ACN with 200 ng/ml Tolbutamide and 200 ng/ml Labetalol (4° C.)
Procedure: In the well plates (T5, T10, T20, T30, T60, NCF60 (no cofactor 60)) 10 uL of the compound/control working solution was added (except T0 and matric blank) followed by microsome solution (80 uL) and the mixture was incubated at 37 C for about 10 mins. A solution of potassium phosphate (10 ul of 50 mM) was added to NCF60 well, incubated at 37 C and time counting started. After prewarming 10 ul of NADPH regenerating solution was added to each plate to start the reaction. At different time point 300 uL/well of stopping solution to terminate the reaction. The sampling plates were shaken for 10 mins and the centrifuged for 20 mins at 4000 rpm. The supernatant was half diluted with ultra pure water and the analyzed using LCMS.

A. fumigatus 1100 = assay: MIC; format: cell-based
C. glabrata = assay: MIC; format: cell-based
[3] = Tables 8 and 9, average over the 8 listed strains
[4] = Table 12, C16 amides of C2'epiAmB

Row | SMILES | MIC A. fumigatus 1163 (A. fumigatus 1163) [µM] | MIC C. albicans SN250 (C. albicans SN250) [µM] | Average MIC [1, 3] [µM] | MIC C. krusei (C. krusei) [µM] | MIC C. tropicalis (C. tropicalis) [µM] | % Remaining at 120 min (Plasma Stability; Human Plasma) [%] | Half Life (Plasma Stability; Human Plasma) [h] | % Remaining at 120 min (Plasma Stability; Rat Plasma) [%] | Half Life (Plasma Stability; Rat Plasma) [h] | CL ([2]; Dog liver microsomes) [µL/min/mg] | CLint ([2]; Dog liver microsomes) [mL/min/kg] | Remaining (T = 60 min) ([2]; Dog liver microsomes) [%] | T1/2 ([2]; Dog liver microsomes) [h] | Remaining (T = NCF60 min) ([2]; Dog liver microsomes) [%] | CL ([2]; Human liver microsomes) [µL/min/mg] | CLint ([2]; Human liver microsomes) [mL/min/kg] | Remaining (T = 60 min) ([2]; Human liver microsomes) [%] | T1/2 ([2]; Human liver microsomes) [h] | Remaining (T = NCF60 min) ([2]; Human liver microsomes) [%] | CL ([2]; Monkey liver microsomes) [µL/min/mg] | other results
1 | CC1C=CC=CC=CC=CC=CC=CC=CC(OC2OC(C)C(O)C(N)C2O)CC2OC(O)(CC(O)CC(O)C(O)CCC(O)CC(O)CC(=O)OC(C)C(C)C1O)CC(O)C2C(=O)NC1CCC1 (stereo not drawn) [AR4] | 1000 (≈ 977 µg/mL) | 500 (≈ 489 µg/mL) | 750 | 550 (≈ 537 µg/mL) | 500 (≈ 489 µg/mL) |  |  |  |  |  |  |  |  |  |  |  |  |  |  |  | 
2 | COC(=O)C(Cc1c[nH]cn1)NC(=O)C1C(O)CC2(O)CC(O)CC(O)C(O)CCC(O)CC(O)CC(=O)OC(C)C(C)C(O)C(C)C=CC=CC=CC=CC=CC=CC=CC(OC3OC(C)C(O)C(N)C3O)CC1O2 (stereo not drawn) [AL] |  |  |  |  |  | 107 | >4.82 | 111 | >4.82 | <9.6 | <14 | 101 | >2.42 | 87.1 | <9.6 | <8.6 | 113 | >2.42 | 96.8 | <9.6 | CLint ([2]; Monkey liver microsomes): <14 mL/min/kg; Remaining (T = 60 min) ([2]; Monkey liver microsomes): 107%; T1/2 ([2]; Monkey liver microsomes): >2.42 h; Remaining (T = NCF60 min) ([2]; Monkey liver microsomes): 106%; CL ([2]; Mouse liver microsomes): <9.6 µL/min/mg; CLint ([2]; Mouse liver microsomes): <38 mL/min/kg; Remaining (T = 60 min) ([2]; Mouse liver microsomes): 127%; T1/2 ([2]; Mouse liver microsomes): >2.42 h; Remaining (T = NCF60 min) ([2]; Mouse liver microsomes): 139%; CL ([2]; Rat liver microsomes): <9.6 µL/min/mg; CLint ([2]; Rat liver microsomes): <17 mL/min/kg; Remaining (T = 60 min) ([2]; Rat liver microsomes): 132%; T1/2 ([2]; Rat liver microsomes): >2.42 h; Remaining (T = NCF60 min) ([2]; Rat liver microsomes): 75.4%
3 | CC1C=CC=CC=CC=CC=CC=CC=CC(OC2OC(C)C(O)C(N)C2O)CC2OC(O)(CC(O)CC(O)C(O)CCC(O)CC(O)CC(=O)OC(C)C(C)C1O)CC(O)C2C(=O)NC1CCCCC1 (stereo not drawn) [AR6] | 1000 (≈ 1010 µg/mL) | 500 (≈ 503 µg/mL) | 891 |  | 500 (≈ 503 µg/mL) |  |  |  |  |  |  |  |  |  |  |  |  |  |  |  | MIC A. fumigatus 1100 (A. fumigatus 1100): 1500 µM (≈ 1510 µg/mL); MIC C. glabrata (C. glabrata): 750 µM (≈ 754 µg/mL)
4 | CNC(=O)C1C(O)CC2(O)CC(O)CC(O)C(O)CCC(O)CC(O)CC(=O)OC(C)C(C)C(O)C(C)C=CC=CC=CC=CC=CC=CC=CC(OC3OC(C)C(O)C(N)C3O)CC1O2 (stereo not drawn) [AN] |  |  |  |  |  | 106 | >4.82 | 118 | >4.82 | <9.6 | <14 | 92.4 | >2.42 | 113 | <9.6 | <8.6 | 104 | >2.42 | 127 | <9.6 | CLint ([2]; Monkey liver microsomes): <13 mL/min/kg; Remaining (T = 60 min) ([2]; Monkey liver microsomes): 139%; T1/2 ([2]; Monkey liver microsomes): >2.42 h; Remaining (T = NCF60 min) ([2]; Monkey liver microsomes): 135%; CL ([2]; Mouse liver microsomes): <9.6 µL/min/mg; CLint ([2]; Mouse liver microsomes): <38 mL/min/kg; Remaining (T = 60 min) ([2]; Mouse liver microsomes): 102%; T1/2 ([2]; Mouse liver microsomes): >2.42 h; Remaining (T = NCF60 min) ([2]; Mouse liver microsomes): 131%; CL ([2]; Rat liver microsomes): <9.6 µL/min/mg; CLint ([2]; Rat liver microsomes): <17 mL/min/kg; Remaining (T = 60 min) ([2]; Rat liver microsomes): 106%; T1/2 ([2]; Rat liver microsomes): >2.42 h; Remaining (T = NCF60 min) ([2]; Rat liver microsomes): 93%
5 | CC1C=CC=CC=CC=CC=CC=CC=CC(OC2OC(C)C(O)C(N)C2O)CC2OC(O)(CC(O)CC(O)C(O)CCC(O)CC(O)CC(=O)OC(C)C(C)C1O)CC(O)C2C(=O)NC1CCCCCC1 (stereo not drawn) [AR7] |  |  | 1469 | 1000 (≈ 1020 µg/mL) |  |  |  |  |  |  |  |  |  |  |  |  |  |  |  |  | MIC C. glabrata (C. glabrata): 2000 µM (≈ 2040 µg/mL)
6 | CC1C=CC=CC=CC=CC=CC=CC=CC(OC2OC(C)C(O)C(N)C2O)CC2OC(O)(CC(O)CC(O)C(O)CCC(O)CC(O)CC(=O)OC(C)C(C)C1O)CC(O)C2C(=O)NCCC#N (stereo not drawn) [BO] | 1500 (≈ 1460 µg/mL) |  |  |  | 500 (≈ 488 µg/mL) |  |  |  |  |  |  |  |  |  |  |  |  |  |  |  | Average MIC [1, 4]: 1.188 µM; Avg. MIC of AmB amide [1]: 0.42
7 | CC1C=CC=CC=CC=CC=CC=CC=CC(OC2OC(C)C(O)C(N)C2O)CC2OC(O)(CC(O)CC(O)C(O)CCC(O)CC(O)CC(=O)OC(C)C(C)C1O)CC(O)C2C(=O)NCCN (stereo not drawn) [AM] |  |  |  |  |  | 102 | >4.82 | 118 | >4.82 | <9.6 | <14 | 107 | >2.42 | 109 | <9.6 | <8.6 | 101 | >2.42 | 115 | <9.6 | CLint ([2]; Monkey liver microsomes): <13 mL/min/kg; Remaining (T = 60 min) ([2]; Monkey liver microsomes): 113%; T1/2 ([2]; Monkey liver microsomes): >2.42 h; Remaining (T = NCF60 min) ([2]; Monkey liver microsomes): 121%; CL ([2]; Mouse liver microsomes): <9.6 µL/min/mg; CLint ([2]; Mouse liver microsomes): <38 mL/min/kg; Remaining (T = 60 min) ([2]; Mouse liver microsomes): 109%; T1/2 ([2]; Mouse liver microsomes): >2.42 h; Remaining (T = NCF60 min) ([2]; Mouse liver microsomes): 176%; CL ([2]; Rat liver microsomes): <9.6 µL/min/mg; CLint ([2]; Rat liver microsomes): <17 mL/min/kg; Remaining (T = 60 min) ([2]; Rat liver microsomes): 113%; T1/2 ([2]; Rat liver microsomes): >2.42 h; Remaining (T = NCF60 min) ([2]; Rat liver microsomes): 83.1%
8 | CC1C=CC=CC=CC=CC=CC=CC=CC(OC2OC(C)C(O)C(N)C2O)CC2OC(O)(CC(O)CC(O)C(O)CCC(O)CC(O)CC(=O)OC(C)C(C)C1O)CC(O)C2C(=O)NC1COCC1O (stereo not drawn) [BR] |  |  |  |  | 500 (≈ 505 µg/mL) |  |  |  |  |  |  |  |  |  |  |  |  |  |  |  | Average MIC [1, 4]: 1.688 µM; Average MIC ([1]; Table 13, C16 amides of C2’epiAmB): 1250 µM; Avg. MIC of AmB amide [1]: 0.38
9 | CC1C=CC=CC=CC=CC=CC=CC=CC(OC2OC(C)C(O)C(N)C2O)CC2OC(O)(CC(O)CC(O)C(O)CCC(O)CC(O)CC(=O)OC(C)C(C)C1O)CC(O)C2C(=O)NC1CCCC1 (stereo not drawn) [AR5] |  | 500 (≈ 496 µg/mL) | 1063 | 500 (≈ 496 µg/mL) | 500 (≈ 496 µg/mL) |  |  |  |  |  |  |  |  |  |  |  |  |  |  |  | MIC A. fumigatus 1100 (A. fumigatus 1100): 1500 µM (≈ 1490 µg/mL)

— US20230016424A1, “HYBRID AMIDE DERIVATIVES OF AMPHOTERICIN B” (The Board of Trustees of the University of Illinois, priority 2019, published 2023)
